Source: PMC11911254 (Pharmacological Reports, 2025)

Key:
[1] = cited from earlier work
[2] = Concentration of paracetamol and its metabolites in plasma, CSF and brain cortex by LC-MS/MS; details: for Concentration in CSF / Concentration in brain / Concentration in plasma: E19 rats; for Concentration in CSF / Concentration in brain / Concentration in plasma / concentration at 30 min: median (IQR); for concentration at 30 min: both, Sprague Dawley, rat, intraperitoneal, P4 rats
Procedure: Drug injection protocol is illustrated in Fig. 1.
Male and female postnatal P4 pups and 7–8 week-old non-pregnant females were used. […] In combination therapy experiments, this dose was accompanied by one of the 7 other drugs (Table 1). For all experiments, animals were terminally anesthetized 30 min after the drug injection using inhaled isoflurane (IsoFlo 100% w/w, Abbott Laboratories), and blood, CSF, and brain samples were collected. Blood was collected directly from the right cardiac ventricle, CSF from the cisterna magna, and cortical brain samples from the frontal/parietal lobes dorsal to the lateral ventricles as described previously.
Pregnant E19 dams were anesthetized with ip urethane injection (25% w/v urethane, Sigma, 1 ml/100 g body weight) and placed on a 39 °C heating pad in the supine position. An endotracheal catheter was inserted to maintain a clear airway. Catheters were inserted into the femoral vein and artery for iv drug administration and arterial blood sampling respectively. The cannula was flushed with 0.5 ml of heparinized saline (Hospira Inc, 5,000 units/ml) after drug administration and following each arterial blood sample. Following drug administration to the dams, fetuses were exteriorized and serially collected starting at 30 min post-maternal injection. […] At collection, the viability of each fetus was assessed (presence of a heartbeat, the colour of the umbilical vessels) and blood, CSF, and brain samples were taken along with a time-matched maternal blood sample from the femoral artery. At the end of the experiment, a final maternal blood sample was taken directly from the left cardiac ventricle, and CSF and brain samples were collected.
This method has been described previously for valproate, lamotrigine, and olanzapine and was applied in the present study. Simultaneous quantification was performed for all compounds in plasma, brain, and CSF samples following the addition of respective stable isotope-labeled internal standards.
Linear response range was determined in untreated control rat plasma for each compound at 0.1, 1, 10, 50, 100, 200, 400, and 800 µg/ml.

[3] = maternal iv paracetamol 15 mg/kg + cimetidine 11 mg/kg (PARA+CIM, n=10)
[4] = maternal iv paracetamol 15 mg/kg + digoxin 0.03 mg/kg (PARA+DIG, n=9)
[5] = maternal iv paracetamol 15 mg/kg + lamotrigine 6 mg/kg (PARA+LTG, n=10)
[6] = maternal iv paracetamol 15 mg/kg + olanzapine 0.15 mg/kg (PARA+OLZ, n=10), all values if <3 detected
[7] = maternal iv paracetamol 15 mg/kg + valproate 30 mg/kg (PARA+VPA, n=10), all values if <3 detected
[8] = maternal iv paracetamol 15 mg/kg monotherapy (PARA, n=10)

- Concentration in CSF [2, 3]: 7.2 (1.7) µg/ml
- Concentration in brain [2, 3]: 10.2 (5.7) µg/ml
- Concentration in plasma [2, 3]: 7.6 (2.5) µg/ml
- Concentration in CSF [2, 4]: 6.5 (2.2) µg/ml
- Concentration in brain [2, 4]: 6.6 (3.0) µg/ml
- Concentration in plasma [2, 4]: 5.8 (2.2) µg/ml
- Concentration in CSF [2, 5]: 6.3 (3.4) µg/ml
- Concentration in brain [2, 5]: 8 (2.6) µg/ml
- Concentration in plasma [2, 5]: 6.2 (3.7) µg/ml
- Concentration in plasma ([2]; maternal iv paracetamol 15 mg/kg + olanzapine 0.15 mg/kg (PARA+OLZ, n=10)): 4.1 (3.7) µg/ml
- Concentration in CSF [2, 6]: 4.7 (4.0) µg/ml
- Concentration in brain [2, 6]: 8.7 (3.9) µg/ml
- Concentration in plasma ([2]; maternal iv paracetamol 15 mg/kg + olanzapine 0.15 mg/kg (PARA+OLZ, n=10), listed as paracetamol): 4.1 µg/mL
- Concentration in CSF ([2]; maternal iv paracetamol 15 mg/kg + valproate 30 mg/kg (PARA+VPA, n=10)): 5.9 (2.1) µg/ml
- Concentration in brain [2, 7]: 6.9 (2.1) µg/ml
- Concentration in plasma [2, 7]: 6.0 (2.5) µg/ml
- Concentration in CSF [2, 8]: 8.0 (3.2) µg/ml
- Concentration in brain [2, 8]: 9.3 (5.0) µg/ml
- Concentration in plasma [2, 8]: 7.5 (2.9) µg/ml
- Concentration in plasma ([2]; maternal iv paracetamol 15 mg/kg monotherapy (PARA, n=10), listed as paracetamol): 7.5 µg/mL
- change in plasma concentration following combination therapy ([2]; adults, any of the drugs investigated, Kruskal-Wallis test): no significant changes
- concentration at 30 min ([2]; CSF, 15 mg/kg, Concentration in CSF, 30 min after ip paracetamol 15 mg/kg monotherapy (PARA, n=4)): 7000 ng/mL
- concentration at 30 min ([2]; CSF, Concentration in CSF, 30 min after ip paracetamol 15 mg/kg + cimetidine 11 mg/kg (PARA+CIM, n=4)): 6200 ng/mL
- concentration at 30 min ([2]; CSF, Concentration in CSF, 30 min after ip paracetamol 15 mg/kg + digoxin 0.03 mg/kg (PARA+DIG, n=4)): 6300 ng/mL
- concentration at 30 min ([2]; CSF, Concentration in CSF, 30 min after ip paracetamol 15 mg/kg + fluvoxamine 1.5 mg/kg (PARA+FLX, n=4)): 9400 ng/mL
- concentration at 30 min ([2]; CSF, Concentration in CSF, 30 min after ip paracetamol 15 mg/kg + lamotrigine 6 mg/kg (PARA+LTG, n=5)): 7200 ng/mL
- concentration at 30 min ([2]; CSF, Concentration in CSF, 30 min after ip paracetamol 15 mg/kg + lithium 3.2 mg/kg (PARA+Li, n=4)): 4700 ng/mL
- concentration at 30 min ([2]; CSF, Concentration in CSF, 30 min after ip paracetamol 15 mg/kg + olanzapine 0.15 mg/kg (PARA+OLZ, n=4)): 5300 ng/mL
- concentration at 30 min ([2]; CSF, Concentration in CSF, 30 min after ip paracetamol 15 mg/kg + valproate 30 mg/kg (PARA+VPA, n=4)): 6400 ng/mL
- concentration at 30 min ([2]; brain cortex, 15 mg/kg, Concentration in brain, 30 min after ip paracetamol 15 mg/kg monotherapy (PARA, n=4)): 8900 ng/mL
- concentration at 30 min ([2]; brain cortex, Concentration in brain, 30 min after ip paracetamol 15 mg/kg + cimetidine 11 mg/kg (PARA+CIM, n=4)): 9000 ng/mL
SMILES: CC(=O)Nc1ccc(O)cc1 [Paracetamol, reference compound]
- fraction metabolized by glucuronidation via UGT enzymes ([1]; adult humans, liver): 55–60%
- fraction metabolized by sulfation via SULT enzymes ([1]; adult humans, liver): 20–30%
- fraction excreted unchanged in urine ([1]; adult humans): around 4%
- fraction turned into NAPQI via cytochrome P450 enzymes ([1]; adult humans): Up to 10%
- proportion of paracetamol's metabolism by the glutathione metabolic pathway [1]: < 10%
